# Experimental data taken from US20230022859A1, “TREATMENT OF CANCER WITH ANTI-OX40 ANTIBODIES AND MULTI-KINASE INHIBITORS” (BEIGENE, LTD., priority 2019, published 2023).
# T1: interaction between OX40 and OX40 ligand (Mus musculus, UniProt P47741)
# T1 sequence (P47741 20-272): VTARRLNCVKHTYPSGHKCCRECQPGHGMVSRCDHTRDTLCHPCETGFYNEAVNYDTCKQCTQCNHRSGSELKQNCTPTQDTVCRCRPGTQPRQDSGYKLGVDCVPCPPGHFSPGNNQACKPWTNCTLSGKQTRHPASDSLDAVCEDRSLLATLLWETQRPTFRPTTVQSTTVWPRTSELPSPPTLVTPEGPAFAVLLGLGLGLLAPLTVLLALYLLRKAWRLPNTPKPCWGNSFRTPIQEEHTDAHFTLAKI
# T1 sequence (P43488 1-198 partner): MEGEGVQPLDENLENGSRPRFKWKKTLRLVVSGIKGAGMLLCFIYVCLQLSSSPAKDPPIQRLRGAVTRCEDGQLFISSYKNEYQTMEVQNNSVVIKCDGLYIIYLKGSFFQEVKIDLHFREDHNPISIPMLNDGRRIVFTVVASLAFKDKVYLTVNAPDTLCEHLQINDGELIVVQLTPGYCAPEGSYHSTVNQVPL
# T2: full-length human OX40 expressed on HuT78/OX40 cells (human, UniProt P43489 29-277)
# T2 sequence: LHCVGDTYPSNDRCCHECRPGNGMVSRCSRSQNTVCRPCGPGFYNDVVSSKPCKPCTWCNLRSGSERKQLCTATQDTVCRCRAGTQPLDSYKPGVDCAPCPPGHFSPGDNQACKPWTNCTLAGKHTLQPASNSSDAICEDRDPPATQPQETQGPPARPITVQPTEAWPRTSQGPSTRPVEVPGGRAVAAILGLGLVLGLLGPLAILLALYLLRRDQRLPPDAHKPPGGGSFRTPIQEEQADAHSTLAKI
# T3: recombinant OX40 protein with a His tag (Cat: 10481-H08H, Sino Biological) (UniProt P43489 29-216)
# T3 construct: Bought protein; not shown: His tag
# T3 sequence (looked up): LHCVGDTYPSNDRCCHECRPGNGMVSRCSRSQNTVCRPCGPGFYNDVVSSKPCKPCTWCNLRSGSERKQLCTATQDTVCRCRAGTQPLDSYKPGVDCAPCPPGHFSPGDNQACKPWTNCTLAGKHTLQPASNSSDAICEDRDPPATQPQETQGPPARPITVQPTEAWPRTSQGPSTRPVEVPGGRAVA
# Key:
# [1] = test system: tyrosine kinases, including RET, CBL, CHR4q12, DDR and Trk; conditions: cited from earlier work
# [2] = test system: MC38 cells, a murine colon adenocarcinoma line; experiment: MC38 syngeneic colon adenocarcinoma model, 1A7.gr1 and Compound 1; assay type: in vivo, C57BL/6 mice
# Description: Female C57BL/6 mice were subcutaneously implanted with 2×10^7 MC38 cells, a murine colon adenocarcinoma line; in 100 μL PBS in the right frank. After inoculation, mice were randomized into 4 groups according to tumor volume. Mice were treated with vehicle (PEG400/0.1N HCL in saline, 40/60) as a control. 1A7.gr1 (sequence previously disclosed in US 20150307617) was confirmed to bind to mouse OX40 in house.
# The 1A7.gr1 antibody was administered at 2 mg/kg per week by intraperitoneal injection as a single agent. […] The 1A7.gr1 antibody in combination with Compound 1 was administered at the same dosages and routes of administration as described above. Tumor volumes were determined twice weekly.
# [3] = test system: CT26WT cells, a murine colon cancer cell line; experiment: CT26WT syngeneic colon tumor model, OX86 and Compound 1; assay type: in vivo, BALB/c mice; conditions: OX86 0.08 mg/kg QW i.p.; Compound 1 15 mg/kg QD p.o.
# Description: Female BALB/c mice were subcutaneously implanted with 1×10^5 CT26WT cells, a murine colon cancer cell line, in 100 μL PBS in the right flank. After inoculation, the mice were randomized into 4 groups with 20 animals in each group according to the inoculation order. The mice were treated with vehicle (PEG400/0.1N HCl in saline, 40/60) as a negative control.
# As monotherapy, OX86 was administered at 0.08 mg/kg once per week (QW) by intraperitoneal (i.p.) injection
# Compound 1 was administered as a single therapy at 15 mg/kg once per day (QD) by oral gavage (p.o.). OX86 was administered at 0.08 mg/kg once per week (QW) by intraperitoneal (i.p.) injection in combination with Compound 1 at 15 mg/kg once per day (QD) by oral gavage (p.o.). Tumor volume was determined twice weekly in two dimensions using a caliper, and was expressed in mm3 using the formula: V=0.5(a×b2) where a and b are the long and short diameters of the tumor, respectively. Data is presented as mean tumor volume ±standard error of the mean (SEM). Tumor growth inhibition (TGI) is calculated using the following formula: […]
# [4] = target: T1, interaction between OX40 and OX40 ligand; conditions: cited from earlier work
# [5] = target: T2, full-length human OX40 expressed on …; experiment: FACS; cells not named in the sentence (taken as OX40-expressing cells); reference 445-2
# [6] = target: T3, recombinant OX40 protein with a His tag …; experiment: Biacore; OX40 protein not given; reference 445-2
# [7] = 1A7.gr1 2 mg/kg QW i.p., Compound 1 15 mg/kg QD p.o.
molecule,measurement,setting,value
COCCNCc1ccc(-c2cc3nccc(Oc4ccc(NC(=O)C5(C(=O)Nc6ccc(F)cc6)CC5)cc4F)c3s2)nc1 [Compound 1],inhibition of tyrosine kinases,[1],potent inhibition
same,Mean Tumor Volume on Day 29 (mean ± SEM),[2]; [7],712.5 mm^3
same,TGI (%) on Day 22,[2]; [7],80%
same,complete response / mice being tumor free on day 22,"[2]; 1A7.gr1 2 mg/kg QW×4, Compound 1 15 mg/kg QD×22",80%
same,Mean Tumor Volume on Day 24 (mean ± SEM),[3],177.4 ± 28.5 mm^3
same,TGI (%) on Day 24,[3],91%
same,Tumor Free Animal (%) on Day 69 (complete responders),[3],5%
"OX86: rat anti-mouse OX40 antibody of WO2016/057667 engineered with mouse IgG2a constant regions, VH SEQ ID NO: 32, VL SEQ ID NO: 33 (antibody, V domains shown, mouse IgG2a constant regions) VH: QVQLKESGPGLVQPSQTLSLTCTVSGFSLTGYNLHWVRQPPGKGLEWMGRMRYDGDTYYNSVLKSRLSISRDTSKNQVFLKMNSLQTDDTAIYYCTRDGRGDSFDYWGQGVMVTVSS VL: DIVMTQGALPNPVPSGESASITCRSSQSLVYKDGQTYLNWFLQRPGQSPQLLTYWMSTRASGVSDRFSGSGSGTYFTLKISRVRAEDAGVYYCQQVREYPFTFGSGTKLEIK",blocking of OX40-OX40 ligand interaction,[4],does not block the interaction between OX40 and OX40 ligand
same,Mean Tumor Volume on Day 24 (mean ± SEM),[3],308.5 ± 115.8 mm^3
same,TGI (%) on Day 24,[3],84%
same,Tumor Free Animal (%) on Day 69 (complete responders),[3],50%
"445-2 variant with K28T in the heavy chain and S24R in the light chain (antibody, V domains shown) VH: QVQLVQSGAEVKKPGSSVKVSCKASGYTFTSYIIHWVRQAPGQGLEWMGYINPYNEGTRYAQKFQGRVTLTADKSTSTAYMELSSLRSEDTAVYYCARGYYGSSYAMDYWGQGTTVTVSS VL: DIQMTQSPSSLSASVGDRVTITCRASQGISNYLNWYQQKPGKAIKLLIYDASTLYSGVPSRFSGSGSGTDFTLTISSLQPEDFATYYCQQYSKLPYTFGGGTKVEIK",fold increase to the EC50 over the original 445-2 antibody,[5],1.7 fold
"445-2 variant with Y27G in the heavy chain and S24R in the light chain (antibody, V domains shown) VH: QVQLVQSGAEVKKPGSSVKVSCKASGGKFTSYIIHWVRQAPGQGLEWMGYINPYNEGTRYAQKFQGRVTLTADKSTSTAYMELSSLRSEDTAVYYCARGYYGSSYAMDYWGQGTTVTVSS VL: DIQMTQSPSSLSASVGDRVTITCRASQGISNYLNWYQQKPGKAIKLLIYDASTLYSGVPSRFSGSGSGTDFTLTISSLQPEDFATYYCQQYSKLPYTFGGGTKVEIK",fold increase to the KD over the original 445-2 antibody,[6],1.7 fold
